According to US11926626B2, “Heterocyclic GLP-1 agonists” (Gasherbrum Bio, Inc., priority 2020, dated 2024):
Like-named read-outs stand apart in the source and are kept apart here.

Target: GLP-1 Receptor (Homo sapiens, UniProt P43220)
Assay: GLP-1R agonist cAMP stimulation assay (HEK293/GLP1R/CRE-Luc cells, HTRF cAMP)
Assay type: cell-based
Settings: 30 min, 37° C.; for EC50: read-out: GLP1R cAMP Stimulation DR: EC50
Procedure: Activation of GLP-1 receptor is known to stimulate cyclic AMP (cAMP) production in cells which indicates primary coupling to the Gαs subunit of the G protein heterotrimeric complex.
To optimize functional activity directed toward Gαs coupling, a HEK293/CRE-Luc cell line developed by HDB stably expressing the GLP-1 Receptor was used. […] 1×10^5 cells/mL HEK293/GLP1R/CRE-LUC(HD Biosciences) cell suspensions prepared with assay buffer[DPBS containing 0.5 mM IBMX (Sigma, Cat #I5879) and 0.1% BSA (GENVIEW, Cat #FA016-100g)], 10 uL cell suspensions were added to each well of previous generated assay plate which already contains 50 nl compound at 200×concentration using ThermoFisher Multidrop Combi (1000 cells/well). Seal the plate and incubate at 37° C. with 5% CO2 for 30 min.
After incubation the cAMP assay signal was generated using cAMP dynamic 2 Kit (Cisbio). 5 μL cAMP-d2 working solution was added to each well, followed with 5 μL Anti-cAMP antibody-cryptate working solution added to each well using ThermoFisher Multidrop Combi. Incubate at room temperature for 1 hour protected from light.

[1] = HEK293/CRE-Luc cells stably expressing GLP-1 Receptor

Chain of GLP-1 Receptor (P43220 24-463): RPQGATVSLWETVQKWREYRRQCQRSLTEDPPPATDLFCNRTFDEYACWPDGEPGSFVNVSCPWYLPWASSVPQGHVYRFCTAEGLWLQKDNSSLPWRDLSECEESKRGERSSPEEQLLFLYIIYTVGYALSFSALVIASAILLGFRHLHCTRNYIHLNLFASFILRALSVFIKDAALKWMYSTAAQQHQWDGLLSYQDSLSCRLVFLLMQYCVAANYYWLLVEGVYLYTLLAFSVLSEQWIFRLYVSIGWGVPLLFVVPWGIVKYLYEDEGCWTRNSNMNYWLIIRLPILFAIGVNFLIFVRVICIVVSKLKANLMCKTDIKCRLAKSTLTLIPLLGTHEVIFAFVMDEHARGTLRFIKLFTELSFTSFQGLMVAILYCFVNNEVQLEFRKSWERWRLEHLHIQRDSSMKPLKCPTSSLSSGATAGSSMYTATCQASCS

| GLP1R cAMP Stimulation DR: pEC50 [1] | Structure (SMILES) | also measured |
| --- | --- | --- |
| – | O=C(O)c1ccc2nc(CN3CCC(Oc4cccc(Cc5ccc(Cl)s5)n4)CC3)n(C[C@@H]3CCO3)c2n1 [Compound 147a, 2-{[4-({6-[(5-chlorothiophen-2-yl)methyl]pyridin-2-yl}oxy)piperidin-1-yl]methyl}-3-{[(2S)-oxetan-2-yl]methyl}-3H-imidazo[4,5-b]pyridine-5-carboxylic acid] | GLP1R cAMP Stimulation DR: pEC50: 9.7; EC50: 0.2 nM |
| 8.4 | O=C(O)c1ccc2nc(CN3CCC(Oc4cccc(CN5Cc6ccccc6C5=O)n4)CC3)n(C[C@@H]3CCO3)c2n1 [Compound 148a, 3-{[(2S)-oxetan-2-yl]methyl}-2-{[4-({6-[(1-oxo-2,3-dihydro-1H-isoindol-2-yl)methyl]pyridin-2-yl}oxy)piperidin-1-yl]methyl}-3H-imidazo[4,5-b]pyridine-5-carboxylic acid] | – |
| 8.3 | O=C(O)c1ccc2nc(CN3CCC(Oc4cccc(Cn5ccc(Cl)cc5=O)n4)CC3)n(C[C@@H]3CCO3)c2n1 [Compound 149a, 2-{[4-({6-[(4-chloro-2-oxo-1,2-dihydropyridin-1-yl)methyl]pyridin-2-yl}oxy)piperidin-1-yl]methyl}-3-{[(2S)-oxetan-2-yl]methyl}-3H-imidazo[4,5-b]pyridine-5-carboxylic acid] | – |
| 7.2 | O=C(O)c1ccc2nc(CN3CCC(Oc4ccc(F)c(Cc5ccc(Cl)cc5F)n4)CC3)n(C[C@@H]3CCO3)c2n1 [Compound 150a, (S)-2-((4-((6-(4-chloro-2-fluorobenzyl)-5-fluoropyridin-2-yl)oxy)piperidin-1-yl)methyl)-3-(oxetan-2-ylmethyl)-3H-imidazo[4,5-b]pyridine-5-carboxylic acid] | – |
| 10.1 | O=C(O)c1ccc2nc(CN3CCC(Oc4nc(Cc5ccc(Cl)cc5F)ncc4F)CC3)n(C[C@@H]3CCO3)c2n1 [Compound 151a, (S)-2-((4-((2-(4-chloro-2-fluorobenzyl)-5-fluoropyrimidin-4-yl)oxy)piperidin-1-yl)methyl)-3-(oxetan-2-ylmethyl)-3H-imidazo[4,5-b]pyridine-5-carboxylic acid] | – |
| 10.4 | O=C(O)c1ccc2nc(CN3CCC(Oc4ccnc(Cc5ccc(Cl)cc5)n4)CC3)n(C[C@@H]3CCO3)c2n1 [Compound 152a, 2-{[4-({2-[(4-chlorophenyl)methyl]pyrimidin-4-yl}oxy)piperidin-1-yl]methyl}-3-{[(2S)-oxetan-2-yl]methyl}-3H-imidazo[4,5-b]pyridine-5-carboxylic acid] | – |
| 7.6 | Cc1cc(Cc2ccc(Cl)cc2)nc(OC2CCN(Cc3nc4ccc(C(=O)O)nc4n3C[C@@H]3CCO3)CC2)c1 [Compound 154a, 2-{[4-({6-[(4-chlorophenyl)methyl]-4-methylpyridin-2-yl}oxy)piperidin-1-yl]methyl}-3-{[(2S)-oxetan-2-yl]methyl}-3H-imidazo[4,5-b]pyridine-5-carboxylic acid] | – |
| 8.4 | O=C(O)c1ccc2nc(CN3CCC(Oc4cc(Cl)cc(Cc5ccc(Cl)cc5)n4)CC3)n(C[C@@H]3CCO3)c2n1 [Compound 155a, 2-{[4-({4-chloro-6-[(4-chlorophenyl)methyl]pyridin-2-yl}oxy)piperidin-1-yl]methyl}-3-{[(2S)-oxetan-2-yl]methyl}-3H-imidazo[4,5-b]pyridine-5-carboxylic acid] | – |
| 7.4 | O=C(O)c1ccc2nc(CN3CCC(Oc4cc(C(F)(F)F)cc(Cc5ccc(Cl)cc5)n4)CC3)n(C[C@@H]3CCO3)c2n1 [Compound 156a, 2-{[4-({6-[(4-chlorophenyl)methyl]-4-(trifluoromethyl)pyridin-2-yl}oxy)piperidin-1-yl]methyl}-3-{[(2S)-oxetan-2-yl]methyl}-3H-imidazo[4,5-b]pyridine-5-carboxylic acid] | – |
| 7.4 | O=C(O)c1ccc2nc(CN3CCC(Oc4cccc(Cc5ccc(Cl)cc5)c4F)CC3)n(C[C@@H]3CCO3)c2n1 [Compound 157a, 2-[(4-{3-[(4-chlorophenyl)methyl]-2-fluorophenoxy}piperidin-1-yl)methyl]-3-{[(2S)-oxetan-2-yl]methyl}-3H-imidazo[4,5-b]pyridine-5-carboxylic acid] | – |
| <6.0 | O=C(O)c1ccc2nc(CN3CCC(Oc4cccc(Cc5ccc(Cl)cc5)c4Cl)CC3)n(C[C@@H]3CCO3)c2n1 [Compound 158a, 2-[(4-{2-chloro-3-[(4-chlorophenyl)methyl]phenoxy}piperidin-1-yl)methyl]-3-{[(2S)-oxetan-2-yl]methyl}-3H-imidazo[4,5-b]pyridine-5-carboxylic acid] | – |
| 8.6 | O=C(O)c1ccc2nc(CN3CCC(Oc4ccnc(Cc5ccc(Cl)cc5)c4)CC3)n(C[C@@H]3CCO3)c2n1 [Compound 159a, 2-{[4-({2-[(4-chlorophenyl)methyl]pyridin-4-yl}oxy)piperidin-1-yl]methyl}-3-{[(2S)-oxetan-2-yl]methyl}-3H-imidazo[4,5-b]pyridine-5-carboxylic acid] | – |
| 9.9 | O=C(O)c1ccc2nc(CN3CCC(Oc4ccnc(Cc5ccc(Cl)cc5F)n4)CC3)n(C[C@@H]3CCO3)c2c1 [Compound 160a, 2-{[4-({2-[(4-chloro-2-fluorophenyl)methyl]pyrimidin-4-yl}oxy)piperidin-1-yl]methyl}-1-{[(2S)-oxetan-2-yl]methyl}-1H-1,3-benzodiazole-6-carboxylic acid] | – |
| 9.7 | O=C(O)c1cnc2nc(CN3CCC(Oc4ccnc(Cc5ccc(Cl)cc5F)n4)CC3)n(C[C@@H]3CCO3)c2c1 [Compound 161a, 2-{[4-({2-[(4-chloro-2-fluorophenyl)methyl]pyrimidin-4-yl}oxy)piperidin-1-yl]methyl}-1-{[(2S)-oxetan-2-yl]methyl}-1H-imidazo[4,5-b]pyridine-6-carboxylic acid] | – |
| 10.1 | N#CC1(Cn2c(CN3CCC(Oc4ccnc(Cc5ccc(Cl)cc5F)n4)CC3)nc3ccc(C(=O)O)cc32)CC1 [Compound 162, 2-{[4-({2-[(4-chloro-2-fluorophenyl)methyl]pyrimidin-4-yl}oxy)piperidin-1-yl]methyl}-1-[(1-cyanocyclopropyl)methyl]-1H-1,3-benzodiazole-6-carboxylic acid] | – |
| 9.4 | O=C(O)c1ccc2nc(CN3CCC(Oc4ccnc(Cc5ccc(F)cc5F)n4)CC3)n(C[C@@H]3CCO3)c2n1 [Compound 165a, 2-{[4-({2-[(2,4-difluorophenyl)methyl]pyrimidin-4-yl}oxy)piperidin-1-yl]methyl}-3-{[(2S)-oxetan-2-yl]methyl}-3H-imidazo[4,5-b]pyridine-5-carboxylic acid] | EC50 [1]: 0.4 nM |
| 9.9 | O=C(O)c1ccc2nc(CN3CCC(Oc4ccnc(Cc5ccc(Cl)c(Cl)c5)n4)CC3)n(C[C@@H]3CCO3)c2n1 [Compound 167a, 2-{[4-({2-[(3,4-dichlorophenyl)methyl]pyrimidin-4-yl}oxy)piperidin-1-yl]methyl}-3-{[(2S)-oxetan-2-yl]methyl}-3H-imidazo[4,5-b]pyridine-5-carboxylic acid] | – |
| 8.9 | O=C(O)c1ccc2nc(CN3CCC(Oc4ccnc(Cc5ccc(Cl)cc5F)n4)C(F)(F)C3)n(C[C@@H]3CCO3)c2n1 (stereo partly drawn) [Compound 168a, 2-{[4-({2-[(4-chloro-2-fluorophenyl)methyl]pyrimidin-4-yl}oxy)-3,3-difluoropiperidin-1-yl]methyl}-3-{[(2S)-oxetan-2-yl]methyl}-3H-imidazo[4,5-b]pyridine-5-carboxylic acid] | – |
| – | O=C(O)c1ccc2nc(CN3CCC(C(F)(F)c4cccc(Cc5ccc(Cl)cc5F)n4)CC3)n(C[C@@H]3CCO3)c2n1 [Compound 173a, 2-{[4-({6-[(4-chloro-2-fluorophenyl)methyl]pyridin-2-yl}difluoromethyl)piperidin-1-yl]methyl}-3-{[(2S)-oxetan-2-yl]methyl}-3H-imidazo[4,5-b]pyridine-5-carboxylic acid] | GLP1R cAMP Stimulation DR: pEC50: 8.4 |
| 7.5 | O=C(O)c1ccc2nc(C[C@H]3CC[C@@H](Oc4cccc(Cc5ccc(Cl)cc5F)n4)CC3)n(C[C@@H]3CCO3)c2n1 [Compound 174a, 3-{[(2S)-oxetan-2-yl]methyl}-2-{[cis-4-({6-[(4-chloro-2-fluorophenyl)methyl]pyridin-2-yl}oxy)cyclohexyl]methyl}-3H-imidazo[4,5-b]pyridine-5-carboxylic acid] | – |
| 9.9 | O=C(O)c1ccc2nc(C[C@H]3CC[C@H](Oc4cccc(Cc5ccc(Cl)cc5F)n4)CC3)n(C[C@@H]3CCO3)c2n1 [Compound 174b, 3-{[(2S)-oxetan-2-yl]methyl}-2-{[trans-4-({6-[(4-chloro-2-fluorophenyl)methyl]pyridin-2-yl}oxy)cyclohexyl]methyl}-3H-imidazo[4,5-b]pyridine-5-carboxylic acid] | – |
| 6.6 | O=C(O)c1ccc2nc(C[C@H]3CC[C@@H](Oc4ccnc(Cc5ccc(Cl)cc5F)n4)CC3)n(C[C@@H]3CCO3)c2n1 [Compound 175a, 3-{[(2S)-oxetan-2-yl]methyl}-2-{[cis-4-({2-[(4-chloro-2-fluorophenyl)methyl]pyrimidin-4-yl}oxy)cyclohexyl]methyl}-3H-imidazo[4,5-b]pyridine-5-carboxylic acid] | – |
